# Results as given in patent publication US5639734A, “Disaccharide inflammation inhibitors and uses thereof” (priority 1994, dated 1997).
# Entries after “also recorded” stand apart in the source; their conditions may differ. Read-outs that look alike come from different tables or passages of the source.
# What was measured:
# [1] = system: F9 cells; assay: Priming of [3H]GlcN-labeled oligosaccharides in F9 cells; type: cell-based, mouse; settings: for Priming of oligosaccharides (in words) / Priming: F9 cells; for Priming of oligosaccharides (in words): [3H]GlcN; for Priming: Table I, per μg cell protein, control value (30) subtracted; for Fraction of labeled oligosaccharides that were charged (bound to QAE-Sephadex): anion-exchange chromatography
# [2] = system: sLe^x on HL-60 cells; assay: FACS of sLe^x expression on HL-60 cells with mAb CSLEX-1; type: cell-based, human; settings: for Inhibition of sialyl Lewis X formation in HL-60 cells (in words): concentration not given
# [3] = system: HL-60 adhesion to activated human umbilical vein endothelial cells (HUVEC); assay: Adhesion of HL-60 cells to TNF-α-activated HUVEC; type: cell-based; settings: for Inhibition of HL-60 / leukocyte adhesion (in words): TNF-α-treated HUVEC, concentration not given
# [4] = system: F9 cells; assay: Uptake of disaccharides by F9 cells, fluorescence assay; type: in vitro ADME, mouse; settings: for Uptake: Table I, control value without glycoside (1.0) subtracted
# [5] = system: Chinese hamster ovary cells; assay: Uptake of glycosides by Chinese hamster ovary cells, fluorescence assay; settings: for Uptake (in words): CHO cells, 37° C., FIG. 1 and 2 (100 μM in FIG. 2); for Uptake: relative to Xylβ-0-2-naphthol 1.0 unit
# Experimental: Confluent monolayers of Chinese hamster ovary cells were incubated with the indicated concentrations of Xylβ-0-2-naphthol at 37° C. for 30 minutes. The amount of glycoside taken up was determined by fluorescence assay.
# The various glycosides were added (100 μM) to confluent Chinese hamster ovary cell monolayers and at the times indicated, the amount of glycoside taken up was quantitated by fluorescence assay. Filled circles: Xylβ-0-2-naphthol; filled square: Galβ-0-2-naphthol; unfilled triangle: Galβ1→4Xylβ-0-2-naphthol; filled triangle: Galβ1 →3Galβ0-2-naphthol.
# Compounds were dissolved in DMSO and added to growth medium such that the final concentration of vehicle was 0.5% (v/v). Confluent cells were incubated with supplemented growth medium at 37° C. for various times. The cultures were placed on ice, the medium was aspirated and the cells were washed three times with cold PBS containing 1 mg/ml of bovine serum albumin. Cells were solubilized in a small volume of 0.1M NaOH and the extracts were neutralized with one mole equivalent of acetic acid. After centrifuging the samples, the supernatants were applied to Sep-Pak Plus C18 cartridges (Waters Associates) and washed with water (10 ml) and 20% (v/v) methanol in water (5 ml). Bound material was eluted with 5 ml of 40% (v/v) methanol in water and concentrated to dryness. The residue was dissolved in methanol and its fluoresence was measured (SLM-Aminco Instruments). The excitation and emission wavelengths for 2-naphthol derivatives were 293 nm and 395 nm, respectively. Phenanthrol derivatives were excited at 310 nm and the emission was measured at 365 nm.
# Animal cells take up β-D-xylosides and prime glycosaminoglycan chains with great efficiency. For priming to occur, the glycoside must pass though the plasma membrane and enter the Golgi where the glycosyltransferases reside. […] Xylβ-0-2-naphthol has three hydroxyl groups, whereas Gal-0-2-naphtholhas four.
# [6] = system: pgsA-745 cells (xylosyltransferase deficient Chinese hamster ovary cells); assay: Priming of [35S]glycosaminoglycan chains in xylosyltransferase-deficient CHO mutant pgsA-745 cells; type: cell-based; settings: FIG. 3, 5 hours at 37° C.; for Priming of glycosaminoglycan chains (in words): up to 500 μM; for minimal effective concentration: Cricetulus griseus, read-out: Concentration at which glycosaminoglycan chains are primed
# Experimental: Various compounds at the indicated concentrations were provided to confluent Chinese hamster ovary cells in a 96 well plate. Glycosaminoglycan synthesis was measured by autoradiography of [^35 S]-glycosaminoglycan collected on a postively charged nylon membrane. 1: Xylβ-0-2-naphthol; 2: Xylβ1→6Gal-0-2-naphthol; 3: Xylβ1→6Gal(Me)-0-2-naphthol; 4: Xylβ1→6Gal(Me)2 -0-2-naphthol; 5: Xylβ1→6Gal(Me)3 -0-2-naphthol; 6: Xyl(Ac)3 β-0-2-naphthol; 7:Xyl(Ac)3 β1→6Gal(Ac)3 -0-2-naphthol.
# Priming of glycosaminoglycan chains was measured in pgsA-745 cells deficient in xylosyltransfersase. The cells were grown to confluence in 96-well microtiter plates (Falcon). Fresh medium (0.2 ml) containing 50 μCi/ml of H2^35 SO4 (25-40 Ci/mg) and the test compounds were added to the wells. The top row of wells contained […] of glycoside and each subsequent row contained a serial dilution (1:3^n, v/v). Cells were incubated for 5 hours at 37° C. and solubilized by adding 20 μl of 0.5M NaOH. The individual wells were adjusted to 0.2% (w/v) Zwittergent 3-12, 25 μg/ml chondroitin sulfate, 0.2M acetic acid and 10 mM Na2 SO4. The samples were transferred to a GeneScreen Plus membrane (Dupont-NEN) placed on top of a piece of 1Chr paper on a vacuum Minifold (Schleicher & Schuell). A wash solution of 0.2% (w/v) Zwittergent 3-12, 0.2M acetic acid and 10 mM Na2 SO4 (0.5 ml) was passed through each well. The membranes were removed from the Minifold, soaked for 5 minutes in 20 ml of wash solution, air-dried and exposed to RX X-ray film for 10-18 hours.
# Therefore, uptake of the disaccharide was measured indirectly by the determining the incorporation of ^35 SO4 into glycosaminoglycan chains. To distinguish glycosaminoglycans produced on the glycoside from those made on endogenous proteoglycans, a Chinese hamster ovary cell mutant deficient in xylosyltransferase was made. […] [^35 S]glycosaminoglycan synthesis was measured by incubating mutant cells in a 96 well plate with glycoside derivatives at different doses. The cells and spent media were then transferred to a positively charged nylon membrane to detect newly made chains by autoradiography.
# [7] = listed as peracetylated Galβ1→4GlcNAcβ-0-2-naphthalenemethanol
# [8] = listed as acetylated Galβ1→4GlcNAcβ-0-2-naphthalenemethanol
compound,measurement,setting,value
"CC(=O)N[C@H]1[C@H](O[C@H]2[C@@H](OC(C)=O)[C@@H](COC(C)=O)O[C@@H](OCc3ccc4ccccc4c3)[C@@H]2OC(C)=O)O[C@H](COC(C)=O)[C@@H](OC(C)=O)[C@@H]1OC(C)=O [AcGlcNAcGal-NM, Peracetylated GlcNAcβ1-3Galβ-0-naphthalenemethanol]",Fold [3H]GlcN-labeled oligosaccharides primed compared with AcLacNAc-NM,[1]; >25 μM,~10 -fold
same,Priming of oligosaccharides (in words),[1],much more active than AcLacNAc-NM at low dose
same,Priming of oligosaccharides (in words),[1]; listed as Acetylated GlcNAcβ1→3Galβ-O-naphthalenemethanol,primes oligosaccharides and inhibits cell adhesion more efficiently than acetylated Galβ1→4GlcNAcβ-X-naphthalenemethanol
same,Priming of oligosaccharides (in words),[1]; listed as acetylated GlcNAcβ1→3Galβ-O-naphthalenemethanol,prime oligosaccharides in cultured cells
same,Inhibition of sialyl Lewis X formation in HL-60 cells (in words),[2],inhibit the formation of sialyl Lewis X
same,Inhibition of HL-60 / leukocyte adhesion (in words),[3],inhibits cell adhesion more efficiently than acetylated Galβ1→4GlcNAcβ-X-naphthalenemethanol
"CC(=O)N[C@H]1[C@H](OCc2ccc3ccccc3c2)O[C@H](COC(C)=O)[C@@H](O[C@@H]2O[C@H](COC(C)=O)[C@H](OC(C)=O)[C@H](OC(C)=O)[C@H]2OC(C)=O)[C@@H]1OC(C)=O [AcLacNAc-NM, acetylated Galβ1→4GlcNAcβ-O-naphthalenemethanol]",Uptake (in words),[4],nearly as well as non-acetylated pentosides linked to naphthol
same,Uptake,[4],6.4 Arbitray units
same,Uptake (in words),[4]; [7],nearly as efficient as Xylβ-0-napthol
same,Priming of oligosaccharides (in words),[1],primed oligosaccharides in F9 cells; also recorded: A significant lag phase preceded priming of oligosaccharides
same,Priming of oligosaccharides (in words),[1]; listed as acetylated Galβ1→4GlcNAcβ-O-naphthalenemethanol,prime oligosaccharides in cultured cells
same,Priming of oligosaccharides (in words),[1]; [7],A large amount of labeled material was generated
same,Priming,[1],250 ^3 H-cpm/μg
same,Fraction of labeled oligosaccharides that were charged (bound to QAE-Sephadex),[1],About 25%
same,Fraction of labeled oligosaccharides that were charged (bound to QAE-Sephadex),[1]; [7],approximately 25%
same,"sLe^x expression on the cell surface, FACS (in words)","[2]; 200 μM acetylated sugars, 40 hours / two days, mAb CSLEX-1",the cell population shifted to a lower mean fluorescence
same,Inhibition of sialyl Lewis X formation in HL-60 cells (in words),[2],inhibit the formation of sialyl Lewis X
same,Inhibition of sialyl Lewis X formation in HL-60 cells (in words),[2]; [8],inhibition of sLe^x expression on the surface of HL-60 cells
same,Fold reduction in attached HL-60 cells,"[3]; 100 μM AcLacNAc-NM, TNF-α HUVEC, static",8 -fold
same,Inhibition of HL-60 / leukocyte adhesion (in words),[3],reduced adhesion
same,Inhibition of HL-60 / leukocyte adhesion (in words),[3]; [8],The decrease in sLe^x expression had a corresponding effect on cell adhesion
OC[C@H]1O[C@@H](O[C@H]2[C@@H](O)[C@@H](CO)O[C@@H](Oc3ccc4ccccc4c3)[C@@H]2O)[C@H](O)[C@@H](O)[C@H]1O [Galβ1→3Galβ-0-2-naphthol],Uptake (in words),[5],not taken up al all
OC[C@H]1O[C@@H](O[C@H]2[C@@H](O)[C@@H](CO)O[C@@H](Oc3cc4ccccc4c4ccccc34)[C@@H]2O)[C@H](O)[C@@H](O)[C@H]1O [Galβ1→3Galβ-0-9-phenanthrol],Uptake,[5],less than 0.1 unit of fluorescence
"CC(=O)N[C@H]1[C@H](OCc2ccc3ccccc3c2)O[C@H](CO)[C@@H](O[C@@H]2O[C@H](CO)[C@H](O)[C@H](O)[C@H]2O)[C@@H]1O [Galβ1→4GlcNAcβ-0-naphthalenemethanol, Galβ1→4GlcNAcβ-0-2-naphthalenemethanol]",Uptake (in words),[4],very limited
same,Uptake,[4],0.5 Arbitray units
same,Priming of oligosaccharides (in words),[1],increases with time and does not saturate for several hours
same,Priming,[1],20 ^3 H-cpm/μg
OC[C@H]1O[C@@H](O[C@@H]2CO[C@@H](Oc3ccc4ccccc4c3)[C@H](O)[C@H]2O)[C@H](O)[C@@H](O)[C@H]1O [Galβ1→4Xylβ-0-2-naphthol],Uptake (in words),[5],not taken up al all
OC[C@H]1O[C@@H](Oc2ccc3ccccc3c2)[C@H](O)[C@@H](O)[C@H]1O [Galβ-0-2-naphthol],Uptake (in words),[5],slow and reached a lower steady-state level
same,Uptake,[5],0.3 unit of fluorescence
OC[C@H]1O[C@@H](Oc2cc3ccccc3c3ccccc23)[C@H](O)[C@@H](O)[C@H]1O [Galβ-0-9-phenanthrol],Uptake,[5],4.2 unit of fluorescence
"O[C@@H]1[C@@H](O)[C@@H](Oc2ccc3ccccc3c2)OC[C@@H]1O [L-Araβ-0-2-naphthol, L-Araα-0-2-naphthol]",Uptake (in words),[5],diffuse more readily than hexosides
same,Uptake,[5],0.8 unit of fluorescence
CC(=O)O[C@@H]1[C@@H](OC(C)=O)[C@H](Oc2ccc3ccccc3c2)OC[C@H]1OC(C)=O [Xyl(Ac)3 β-0-2-naphthol],Priming of glycosaminoglycan chains (in words),[6],somewhat less effectively than the non-acetylated compound
CO[C@H]1[C@@H](OC)[C@@H](CO[C@@H]2OC[C@@H](O)[C@H](O)[C@H]2O)O[C@@H](Oc2ccc3ccccc3c2)[C@@H]1OC [Xylβ1→6Gal(Me)3-0-2-naphthol],minimal effective concentration,[6],< 1 µM
same,Priming of glycosaminoglycan chains (in words),[6],nearly as well as Xylβ-0-2-napthol
O[C@H]1[C@@H](O)[C@@H](CO[C@@H]2OC[C@@H](O)[C@H](O)[C@H]2O)O[C@@H](Oc2ccc3ccccc3c2)[C@@H]1O [Xylβ1→6Galβ-0-2-naphthol],Priming of glycosaminoglycan chains (in words),[6],did not prime [^35 S]-glycosaminoglycans even at 500 μM
"CC(=O)O[C@H]1[C@@H](OC(C)=O)[C@@H](CO[C@@H]2OC[C@@H](OC(C)=O)[C@H](OC(C)=O)[C@H]2OC(C)=O)O[C@@H](Oc2ccc3ccccc3c2)[C@@H]1OC(C)=O [peracetylated Xylβ1→6Galβ-0-2-naphthol, Xyl(Ac)3 β1→6Gal(Ac)3-0-2-naphthol]",minimal effective concentration,[6],~6 µM
Xylβ1→6Gal(Me)2 -0-2-naphthol,Concentration at which glycosaminoglycan chains are primed,[6],2 to 6 µM
Xylβ1→6Gal(Me)-0-2-naphthol,Concentration of maximum effect on 35S-glycosaminoglycan synthesis,[6],approximately 60 μM
same,Priming of glycosaminoglycan chains (in words),[6],Higher concentrations were less effective
